The record followed here is the Deep4Chem optical property database.

The data set can be described thus: solvent given as SMILES.
The mark [1] stands for this setting: in c1cc(-c2cccc(-n3c4ccccc4c4ccccc43)c2)cc(-n2c3ccccc3c3ccccc32)c1.

As for `CN(C)c1cccc2c1C(=O)c1ccccc1-2`, the emission maximum by setting is: (in C1CCCCC1) 498 nm; (in CC#N) 534 nm; (in CCO) 541 nm; (in c1ccccc1) 520 nm.
Consider `c1ccc(-n2c3ccccc3c3cc(C4(c5ccc6c(c5)c5ccccc5n6-c5ccccc5)c5cc(-c6ccc7ccc8cccc9ccc6c7c89)ccc5-c5ccc(-c6ccc7ccc8cccc9ccc6c7c89)cc54)ccc32)cc1`, for which, for the setting “in ClCCl”, the emission maximum is listed as 423 nm.
As to `COc1ccc2c(c1)N(c1ccccc1-c1ccccc1)c1cc3c(cc1=N2)Oc1c(cc(C(C)(C)C)cc1C(C)(C)C)N=3`, the emission maximum was found to be 619 nm (in CC#N), 583 nm (in CCCCCC) and 636 nm (in CO).
Compound `COc1cc(C(=O)O)cc(OC)c1O` showed an emission maximum (in O) of 333 nm.
Compound `CN(C)c1ccc(C2=C3C=C(c4ccc(C=O)cc4)S[C@]34c3ccccc3[C@H]2c2ccccc24)cc1` had an emission maximum (in ClCCl) of 645 nm.
Still for that read-out and setting: next, `N#Cc1ccc(-c2cn3cc(-c4ccccc4)c[n+]3[n-]2)cc1`: 506 nm.
Regarding `c1ccc(-c2nc(-c3ccccc3)nc(-c3ccc(-n4c5ccccc5c5cc6c(cc54)c4ccccc4n6-c4ccccc4)cc3)n2)cc1`, the emission maximum worked out at 478 nm (in Cc1ccccc1) and 511 nm (in O=P(c1ccccc1)(c1ccccc1)c1ccc2oc3ccc(P(=O)(c4ccccc4)c4ccccc4)cc3c2c1).
As to `CC1=[N+]2C(=C(Oc3cc(C)c4c(c3)CC[C@@](C)(CCC[C@H](C)CCC[C@H](C)CCCC(C)C)O4)c3ccc(C)n3[B-]2(F)F)C=C1c1cc2n(c1)[B-](F)(F)[N+]1=CC=CC1=C2c1c(C)cc(C)cc1C`, the emission maximum by setting is: (in C1CCCCC1) 632 nm; (in CCOC(C)=O) 662 nm.
Consider `Cc1cc(C)c2c(c1)c1cc(C)cc(C)c1n2-c1ccc2c(c1)B(c1c(C(C)C)cc(C(C)C)cc1C(C)C)c1cc(-n3c4c(C)cc(C)cc4c4cc(C)cc(C)c43)ccc1N2c1ccccc1`, for which the emission maximum runs as follows: (in C1CCOC1) 447.96 nm; (in CCOC(C)=O) 447.96 nm; (in Cc1ccccc1) 441.5 nm; (in ClCCl) 453.4 nm; under setting [1], 451 nm.
`Cc1ccc(/C=C/c2ccccc2-[n+]2noc([O-])c2-c2ccccc2)cc1`: the emission maximum runs as follows: (in C1CCCCC1) 400 nm; (in CC#N) 506 nm.
Compound `Brc1cc2nc3cc4c5c(cccc5c3nc2cc1Br)C(c1ccccc1)=C(c1ccccc1)O4` came in with an emission maximum (in ClCCl) of 580 nm.
In the case of `COc1cccc2cc(C)c3c4ccccc4n(C)c3c12`, where the note is “in ClCCl”, the emission maximum was 380 nm.
Take `CCC1(CC)c2ccccc2-c2c1c1c(c3c2C(CC)(CC)c2cc(B(c4c(C)cc(C)cc4C)c4c(C)cc(C)cc4C)ccc2-3)C(CC)(CC)c2ccccc2-1`: the emission maximum is listed as 385 nm (in C1CCOC1); 404 nm (in CC#N); 395 nm (in CC(C)=O); 372 nm (in CCCCCC); 387 nm (in ClC(Cl)Cl).
In the case of `COc1ccc(N(c2ccc(OC)cc2)c2ccc(-c3ccc(-c4ccc5nc6ccccc6c(=O)n5c4)cc3)cc2)cc1`, the emission maximum (in ClCCl) worked out at 557 nm.
With `CCCCCCCCN1c2ccccc2Sc2cc(/C=C/c3ccc(N(c4ccc(/C=C/c5ccc6c(c5)Sc5ccccc5N6CCCCCCCC)cc4)c4ccc(/C=C/c5ccc(/C=C/c6ccc(N(c7ccc(/C=C/c8ccc(N(c9ccccc9)c9ccccc9)cc8)cc7)c7ccc(/C=C/c8ccc(N(c9ccccc9)c9ccccc9)cc8)cc7)cc6)c6nsnc56)cc4)cc3)ccc21`, the emission maximum came out at 653 nm (in C1CCOC1); 646 nm (in CCOC(C)=O); 749 nm (in CN(C)C=O); 620 nm (in Cc1ccccc1); 668 nm (in ClC(Cl)Cl); 708 nm (in ClCCl).
Take `O=C(c1ccncc1)c1ccc(-n2c3ccccc3c3ccccc32)cc1`: the emission maximum reads like this: (in Cc1ccccc1) 440 nm; under setting [1], 457.34 nm.
For the compound `CCCCCCc1ccc(-n2c3[n+](c4c5ccccc5c5ccccc5c42)[B-](C)(C)c2ccccc2-3)cc1`, the emission maximum (in C1CCOC1) came to 384 nm, the emission maximum (in CC#N) is given as 385 nm, the emission maximum (in Cc1ccccc1) was 385 nm and the emission maximum (in ClCCl) is given as 385 nm.
`COc1cc2c3c4c(c5ccc(C(C)(C)C)cc5c5c(OC)c(OC)c(OC)c(c2c(OC)c1OC)c45)=[N+]1C3=Nc2c3c4cc(OC)c(OC)c(OC)c4c4c(OC)c(OC)c(OC)c5c6cc(C(C)(C)C)ccc6c(c3c54)n2[B-]1(F)F` had an emission maximum (in Cc1ccccc1) of 873 nm.
On to `COc1cc2c(cc1-c1ccc(Cl)cc1)Cc1c3c(c4c(c1-2)-c1cc(OC)c(-c2ccc(Cl)cc2)cc1C4)C(=O)N(CCC(C)C)C3=O`, for which the emission maximum (in C1CCOC1) was 466 nm.
`CCCCCCNC(=O)c1sc(-c2ccc(-c3cc(-c4ccc(C(C)(C)C)cc4)c(C(=O)NCCCCCC)s3)s2)cc1-c1ccc(C(C)(C)C)cc1`: under “in ClCCl”, the emission maximum is 448 nm.
`CC1=CC(/C=C/c2ccc(N(C)C)cc2)=[N+]2C1=C(c1ccc(I)cc1)c1c(C)cc(/C=C/c3ccc(N(C)C)cc3)n1[B-]2(F)F` displayed an emission maximum (in CC#N) of 768 nm.
Under “in ClCCl”, `COc1ccc(-c2c3ccccc3c(C#Cc3ccccc3)c3cc4cc(C)sc4cc23)cc1` had an emission maximum of 504 nm.
On to `COc1ccc2c3c([nH]c2c1)C(C)=NCC3`, for which the emission maximum runs as follows: (in CC#N) 480 nm; (in CS(C)=O) 420 nm; (in O) 480 nm.
Regarding `Cc1ccc(-c2cc(-c3ccc(N(C)C)cc3)c3c(N)nc(N4CCCC4)c(C#N)c3n2)cc1`, the emission maximum runs as follows: (in CC#N) 514 nm; (in CC(C)=O) 511 nm; (in CC(C)O) 506 nm; (in CO) 517 nm; (in ClC(Cl)Cl) 496 nm; (in ClCCl) 503 nm. Besides, under “in c1ccccc1”, the emission maximum amounted to 500 nm.
Under “in C1CCOC1”, `CC1(C)c2cc(/C=C/c3nc(/C=C/c4ccc5c(c4)C(C)(C)c4cc(N(c6ccccc6)c6ccc7ccccc7c6)ccc4-5)nc(/C=C/c4ccc5c(c4)C(C)(C)c4cc(N(c6ccccc6)c6ccc7ccccc7c6)ccc4-5)n3)ccc2-c2ccc(N(c3ccccc3)c3ccc4ccccc4c3)cc21` had an emission maximum of 440 nm.
As for `COc1ccc(C#Cc2nc(C#Cc3ccc(OC)cc3)c(C#Cc3ccc(OC)cc3)c(C#Cc3ccc(OC)cc3)c2C#Cc2ccc(OC)cc2)cc1`, the emission maximum (in ClCCl) is 459 nm.
For the setting “in C1CCOC1”, `CCCCCCCCCCCCCCCCn1c(-c2cc(-c3nc4ccc(C)cc4n3CCCCCCCCCCCCCCCC)cc(-c3nc4ccc(C)cc4n3CCCCCCCCCCCCCCCC)c2)nc2ccc(C)cc21` showed an emission maximum of 366.9 nm.
The compound `C[N+]1=C(/C=C/C=C2/N(CCC[N+](C)(C)C)c3ccc(Br)cc3C2(C)C)C(C)(C)c2ccccc21` had an emission maximum (in CS(C)=O) of 568 nm.
In turn, `CCCCC(CC)Cn1c2cc(C#N)ccc2c2ccc(C#Cc3ccc4ccc5c(C#Cc6ccc7c8ccc(C#N)cc8n(CC(CC)CCCC)c7c6)ccc6ccc3c4c65)cc21` (configuration not stated) registered an emission maximum (in ClCCl) of 400 nm.
For the compound `COc1ccc(-c2cc(-c3ccc(N(C)C)cc3)nc(-c3ccccc3)n2)cc1`, for the setting “in ClC(Cl)Cl”, the emission maximum is reported as 453 nm.
Take `CCCCCCc1ccc2c(/C=N/c3cc(/N=C/c4c(O)ccc5cc(CCCCCC)ccc45)cc(/N=C/c4c(O)ccc5cc(CCCCCC)ccc45)c3)c(O)ccc2c1`: the emission maximum reads like this: (in C1CCOC1) 509 nm; (in CC#N) 507 nm; (in Cc1ccccc1) 507 nm; (in ClCCl) 511 nm.
